# Data as given in patent US11458153B2, “Drug delivery composition comprising a self-assembled gelator” (The Brigham and Women's Hospital, Inc., priority 2008, dated 2022).
# “Also recorded” adds a separate entry of the source.
# Legend:
# [1] = Gelation studies with Apn-based prodrug gelators in water and organic solvents; format: physicochemical; set-up: key to Gelation ability: G = gel; P = precipitate; S = soluble; I = insoluble; conditions: for gelation in water (in words): water / aqueous solutions
# Text: Gelation Studies with Prodrug-Based Gelators. Gelation abilities of Apn based amphiphilic prodrugs have been investigated thoroughly in a wide range of solvents. For detailed gelation results, see Table 1, below). Typically, the required amount of gelator was placed in a glass vial and with an appropriate solvent. […] The resulting solution was slowly cooled to room temperature and gelation was visually observed. […] Despite of prolonged heating Apn-11-CH3 was not soluble in water. […] In addition, Apn-7-COOH is soluble in basic solutions (pH is more than 8).
# All gels were opaque in nature and stable for several weeks.
# Preparation of Gels. Typically, gelator (0.1-5 mg) and required solvent (0.1-1 mL) were placed into a 2 mL scintillation vial, which was then sealed with a screw cap. The vial was heated with shaking until the solid was completely dissolved.
# [2] = test system: mesenchymal stem cells (MSCs); assay: MSC viability, trypan blue exclusion; format: cell-based, human; conditions: 250 μM, 48 hours incubation
# Procedure: Cytocompatibility. The cytocompatibility of prodrugs generated from small modification of known drugs was investigated. […] To test the cyto compatibility of prodrug-based amphiphiles and bolaamphiphiles, and their effect on cell characteristics such as viability, proliferation, adhesion and cell phenotype, a series of experiments was performed with mesenchymal stem cells (MSCs). To gain more insight into the effect of modification, unmodified drug Apn was used as a control. The viability of control cells and cells treated with Apn, Apn-7-COOH and Apn-8-Apn was examined with trypan blue assay. Use of Mesenchymal stem cells is appropriate given that these systems may be used for localized release likely into connective tissues.
# Mesenchymal Stem Cell Culture. Primary human mesenchymal stem cells were maintained in expansion media that consisted of 15% Fetal Bovine Serum (selected for its ability to expand MSCs), 1% (v/v) L-Glutamine, 1% (v/v) Penn-Strep, and α-MEM. All experiments were performed using MSCs at passage number 4-6.
# Viability, Adhesion and Proliferation Characteristics. The viability of the cells was examined using trypan blue exclusion. […] The media was then aspirated and the cells were detached with 200 μL of cell dissociated solution (similar quantities of floating cells were observed between the groups, typically 5-10 per well). 300 μL of media was added and the total 500 μL of the cell dispersion was collected in an eppendorf tubes. From this 10 μL of cell dispersion was diluted to 1:1 with 4% trypan blue solution and cells were counted in a hemocytometer to determine the number viable (non-blue) and nonviable (blue) cells. A control for this experiment included cells treated with only phosphate buffer saline (PBS) without an amphiphile. Cell adhesion was quantified by measuring the number of adherent cells on tissue culture surfaces in 96 well plates after incubating with amphiphiles for 12 hours. For proliferation studies, 5000 cells were added to each well of a 96 well plate in 200 μL of MSC cell expansion media, and appropriate amphiphiles were then added and incubated at 37° C. and 5% CO2. Proliferation was quantified by manually tabulating the number of cells within the flask at multiple time points (1, 2, 3, 4, 6 and 8 days) with light microscopy at 10×.
# [3] = test system: mesenchymal stem cells (MSCs); assay: MSC adipogenic differentiation, Oil Red O staining; format: cell-based, human; conditions: 250 μM, 23 days of induction
# Procedure: (§1) Unlike typical fibroblast cell lines used for toxicity screening, cultured mesenchymal stem cells are highly sensitive to the presence of soluble factors and can often loose their capacity for multi-lineage differentiation or differentiate into non-desired lineages depending on the culture conditions. To examine the impact of the acetaminophen amphiphilic prodrugs on multi-lineage differentiation of MSCs, cells were treated with adipogenic and osteogenic induction media in presence of amphiphiles followed by respective colorimetric histological staining.
# Adipogenic Differentiation. MSCs were seeded in the wells of 24 well plates, and were culture in MSC expansion media until they reach 90% confluence (note: in control samples there was no amphiphile present, whereas in experimental samples 250 μM of Apn-based amphiphile was present). Adipogenic differentiation was induced by culturing the cells for 23 days in adipogenic induction media (from Lonza—MSCs Adipogenic Single Quote kit containing h-Insulin (recombinant), L-Glutamine, Dexamethasone, Indomethacin, IBMX (3-isobuty-1-methyl-xanthine), Pen/Strep) and adipogenic maintenance media (from Lonza—MSCs Adipogenic Single Quote kit containing h-Insulin (recombinant), L-Glutamine, Pen/Strep). […] Adipogenesis was evaluated by Oil Red O staining. Following aspiration of the media, cells were washed once with PBS, and fixed in PBS with 3.7% formaldehyde for 30 min at room temperature. Following fixation cells were rinsed with distilled water for a few minutes, and incubated with isopropanol containing an Oil Red O working solution (prepared by diluting 30 mL of 0.5% isopropanol/Oil Red O solution with 20 mL of distilled water). After 45 minutes culture well were rinsed twice with distilled water and 1 mL of hematoxylin was added to each well for 1 minute followed by aspiration and washing with distilled water. The wells were viewed using an inverted phase contrast microscope.
# [4] = test system: mesenchymal stem cells (MSCs); assay: MSC osteogenic differentiation, alkaline phosphatase staining; format: cell-based, human; conditions: 250 μM, 23 days
# Procedure: as §1
# Osteogenic Differentiation. MSCs were seeded in the wells of 24 well plates, and were culture in MSC expansion media until they reach 90% confluence (note: in control samples there was no amphiphile present, whereas in experimental samples 250 μM of Apn-based amphiphile was present). Osteogenic differentiation was induced by culturing the cells for 23 days in osteogenic induction media (from Lonza—MSCs Osteogenic Single Quote kit) containing dexamethasone, β-glycerophosphate, L-ascorbic acid-2-phosphate, and α-MEM. The media in both groups was changed every 3 days (note: each time while changing the media, 250 μM of Apn-based amphiphiles were added to maintain constant concentration). Osteogenesis was evaluated by cell membrane associated alkaline phosphatase activity. Alkaline phosphatase activity was examined after 23 days by carefully aspirating the media and washing the cells with PBS. The cells were fixed with 3.7% formaldehyde solution for 15 min at room temperature followed by rinsing with distilled water. 0.06% Red Violet LB salt solution in Tris HCl was added with distilled water containing DMF and Naphthol AS MX-PO4. The plates were incubated for 45 minutes at room temperature and then the wells were rinsed 3 times with distilled water and imaged under with inverted phase contrast microscope.
# [5] = biological target: T1, lipase (Lipolase 100L, Type EX) (Thermomyces lanuginosus, UniProt O59952); assay: Enzyme-triggered hydrogel degradation and drug release; format: in vitro ADME; conditions: curcumin-encapsulated hydrogel, lipase, 37° C., several days
# T1 construct: purchased Novozymes through Brenntag North America Lipolase 100L, Type EX
# T1 sequence (O59952 23-291): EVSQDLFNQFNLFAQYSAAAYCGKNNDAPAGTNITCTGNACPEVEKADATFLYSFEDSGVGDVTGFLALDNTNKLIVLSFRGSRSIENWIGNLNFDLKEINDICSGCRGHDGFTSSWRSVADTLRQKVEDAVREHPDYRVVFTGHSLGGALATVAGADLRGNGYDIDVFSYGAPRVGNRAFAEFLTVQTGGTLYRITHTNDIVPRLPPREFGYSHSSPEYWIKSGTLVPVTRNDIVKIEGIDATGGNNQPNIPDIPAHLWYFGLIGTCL
# Procedure: Encapsulation and release of curcumin was previously studied by the Ultra-Violet absorbance spectroscopy (λmax at 424 nm). Absorbance spectrum of modified Apn-7-COOH was similar to that of Apn (FIG. 6B). In this instance, enzyme-triggered single and multiple drug delivery has been carried out using two sets of hydrogel samples, i.e., hydrogels of Apn-7-COOH and Apn-8-Apn with and without curcumin. In the first set, lipase (Lipolase 100L, Type EX, lipase units 100 KLU/g) was added to the preformed hydrogel of Apn-7-COOH (2 wt %) and kept it at 37° C. which is lower than gel melting temperature. It was anticipated that lipase (esterase) would hydrolyze the ester bond of prodrug-based gelator (Apn-7-COOH) to release acetaminophen and dicarboxylic acid as the hydrogel degrades. As expected, after 48 hours the gel completely degraded and became a clear solution.
# To test this further, and examine multiple (two) drugs delivery (FIGS. 6A-6E), curcumin was encapsulated in the hydrogel of Apn-7-COOH (2 wt %) and to that lipase was added and kept it at 37° C. Absorbance spectra were recorded on aliquots which were collected (after the addition of enzyme to the hydrogel) at regular intervals (FIG. 6C). […] The concentration of the enzyme used in these in vitro experiments is higher than physiological concentration of esterases (for example, physiological concentration of cholesterol esterase is 7 U/ml).
# Increasing either concentration of enzyme or incubation temperature to 45° C. doubles the drug release rate, which was correlating with previous findings.
# To analyze the gel degradation mechanism, another prodrug Apn-5-ether-COOH was synthesized (FIG. 2), where hydrocarbon chain (which is bearing terminal carboxylic acid) was connected to the acetaminophen through an ether bond (C—O—C) to prevent the esterolytic cleavage by lipase.
# [6] = cited from earlier work
# [7] = Gelation ability of polyol amphiphiles in water and organic solvents; format: physicochemical; set-up: key: G = stable gel at room temperature; P = precipitate; Sol = soluble
# Text: Examples of suitable solvents include water, salt water (such as a NaCl solution), different […] such as TRISZMA buffers, and alkaline and acidic solutions. In addition to water-based solutions, the compounds can gel various aromatic and non-aromatic organic solvents, such as benzene, toluene, hexane, and acetonitrile. All the gels obtained in Table 7 were thermally reversible. Above their gelation temperature, the gels dissolved in solvent, but could be returned to their original gel state upon cooling.
SMILES,solubility in water (in words) [1],gelation in water (in words) [1],Gelation ability ([1]; solvent chloroform),Gelation ability ([1]; solvent ethanol),Gelation ability ([1]; solvent ethyl acetate),Gelation ability ([1]; solvent isopropanol),Gelation ability ([1]; solvent methanol),Gelation ability ([1]; solvent t-butanol),Gelation ability ([1]; solvent water),minimum gelation concentration ([1]; solvent water) [wt/v %],also measured
"CC(=O)Nc1ccc(O)cc1 [Apn, N-(4-hydroxyphenyl)acetamide, reference compound]",water soluble,,,,,,,,,,"viable cells [2]: 91%; adipogenic differentiation, Oil Red O (ORO) staining [3]: robust capacity; also recorded: positive staining; osteogenic differentiation, alkaline phosphatase (ALP) staining [4]: robust capacity; also recorded: positive staining"
CC(=O)Nc1ccc(OCCCCCC(=O)O)cc1 [Apn-5-ether-COOH],,gelation behavior akin to Apn-7-COOH,,,,,,,,,state of hydrogel after incubation with lipase [5]: still intact; curcumin release into the solution ([5]; absorption spectroscopy): prevented curcumin release
"COc1cc(C=CC(=O)CC(=O)C=Cc2ccc(O)c(OC)c2)ccc1O [curcumin, 1,7-bis(4-hydroxy-3methoxyphenyl)-1,6-heptadiene-3,5-dione]",,,,,,,,,,,solubility of curcumin in water [6]: 0.03 µM
CCCCCCCCCCCCCCCC(=O)NC(CO)(CO)CO [polyol-16],,,,,,,,,,,"Gelation ability ([7]; solvent 1,4-dioxane): Sol; Gelation ability ([7]; solvent CCl4): G; Gelation ability ([7]; solvent CH3CN): G; Gelation ability ([7]; solvent CHCl3): Sol; Gelation ability ([7]; solvent DMSO): Sol; Gelation ability ([7]; solvent NaCl (40 mM)): G; Gelation ability ([7]; solvent TRIS (50 mM)): G; Gelation ability ([7]; solvent acetone): Sol; Gelation ability ([7]; solvent acidic (pH < 3)): G; Gelation ability ([7]; solvent basic (pH > 12)): G; Gelation ability ([7]; solvent benzene): G; Gelation ability ([7]; solvent cyclohexane): G; Gelation ability ([7]; solvent toluene): G; Gelation ability ([7]; solvent water): G"

# The next lines start with results.
solubility in water (in words) [1],gelation in water (in words) [1],Gelation ability ([1]; solvent chloroform),Gelation ability ([1]; solvent ethanol),Gelation ability ([1]; solvent ethyl acetate),Gelation ability ([1]; solvent isopropanol),Gelation ability ([1]; solvent methanol),Gelation ability ([1]; solvent t-butanol),Gelation ability ([1]; solvent water),minimum gelation concentration ([1]; solvent water) [wt/v %],SMILES,also measured
,formed stable hydrogels,S,S,I,S,S,S,G,1.1,CC(=O)Nc1ccc(OC(=O)CCCCCCC(=O)Oc2ccc(NC(C)=O)cc2)cc1 [Apn-8-Apn],"viable cells [2]: 82%; adipogenic differentiation, Oil Red O (ORO) staining [3]: robust capacity; also recorded: equally stained for ORO; osteogenic differentiation, alkaline phosphatase (ALP) staining [4]: robust capacity; also recorded: equally stained for ALP"
not soluble,did not gelate,S,G,P,G,S,G,I,,CCCCCCCCCCCC(=O)Oc1ccc(NC(C)=O)cc1 [Apn-11-CH3],minimum gelation concentration ([1]; solvent ethanol): 1.5 wt/v %; minimum gelation concentration ([1]; solvent isopropanol): 0.8 wt/v %; minimum gelation concentration ([1]; solvent t-butanol): 0.6 wt/v %
sparingly soluble,,S,S,I,S,S,S,G,0.6,CC(=O)Nc1ccc(OC(=O)CCCCCCCCCCCCC(=O)O)cc1 [Apn-13-COOH],
insoluble,,S,S,I,S,S,S,G,0.9,CC(=O)Nc1ccc(OC(=O)CCCCCCCCCCCCC(=O)Oc2ccc(NC(C)=O)cc2)cc1 [Apn-14-Apn],
